These results are taken from patent US9980937B2, “Therapeutic agent for Alzheimer's disease” (NAGASAKI UNIVERSITY, priority 2014, dated 2018).

T1 sequence (P56817 46-501): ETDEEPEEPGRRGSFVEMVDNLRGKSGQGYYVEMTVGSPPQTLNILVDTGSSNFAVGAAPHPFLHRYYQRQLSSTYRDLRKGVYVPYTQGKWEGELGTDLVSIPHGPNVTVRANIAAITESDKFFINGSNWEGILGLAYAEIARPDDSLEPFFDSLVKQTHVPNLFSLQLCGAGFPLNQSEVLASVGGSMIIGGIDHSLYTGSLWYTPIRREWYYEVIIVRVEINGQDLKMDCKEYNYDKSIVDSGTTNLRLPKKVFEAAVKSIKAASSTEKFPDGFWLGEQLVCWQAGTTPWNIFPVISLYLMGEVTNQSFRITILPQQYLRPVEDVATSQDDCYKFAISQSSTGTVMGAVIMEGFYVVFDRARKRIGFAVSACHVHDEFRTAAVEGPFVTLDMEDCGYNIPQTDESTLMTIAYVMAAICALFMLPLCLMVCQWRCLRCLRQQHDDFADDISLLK

One data set concerns neprilysin. As to the kind of experiment: neprilysin-dependent neutral endopeptidase activity of APP-H4 cell extract (suc-AAF-AMC coupled enzyme assay). The class given is cell-based, human. Particulars: APP-H4 cells, 48 hr, 1 or 10 μM; activity without polyphenol derivative = 1 (FIG. 1). The protocol:
(§1) APP-H4 cells were seeded to a 6-well plate at a density of 12×10^4 cells/1.5 mL, and cultured in Dulbecco's modified Eagle's medium (DMEM; Nacalai Tesque, Inc.) added with 10% fetal bovine serum (FBS; Equitech-Bio, Inc. [Kerrville, Tex., USA]), 100 U/mL penicillin+100 μg/mL streptomycin (Nacalai Tesque, Inc.). After culture for 24 hr, the culture supernatant was removed, and the medium was exchanged with a medium with reduced use amount of serum, Opti-MEM (registered trade mark) I Reduced Serum Medium (Life Technologies Corporation, Carlsbad, Calif., USA) (1 mL). A polyphenol derivative (1 μL) to be the test target was added, and the mixture was further cultured for 48 hr. After culture, the culture supernatant was recovered in a tube (total amount 1.5 mL), centrifuged at 4,000×g/4° C./10 min to remove dead cells, and the supernatant (800 μL) was placed in a new tube. The culture supernatant was preserved at −80° C. before sample preparation. The cells were washed twice with ice-cooled phosphate-buffered saline (PBS). Thereafter, the cells were scraped from the plate using a Cell Scraper. The cells were recovered in a 1.5 mL tube and centrifuged at 4,000×g/4° C./10 min. The supernatant was removed and the cells were preserved at −80° C. before sample preparation. The frozen cells were lysed in 40 μL of solubilization buffer containing 1% Triton X-100, protease inhibitor cocktail Complete™ EDTA-free (Roche) and 50 mM Tris-HCl on ice. The cell lysate was incubated on ice for 60 min, centrifuged at 4° C., 21,900×g for 30 min, and the supernatant was recovered and used as a solubilization cell extract.
The total protein concentration of the cell extract was determined by a BCA protein assay kit (Takara) by using BSA as the standard solution. The final concentration of the test compound used was 1 μM or 10 μM, and quantification was performed using each solvent as a control.
The neprilysin-dependent neutral endopeptidase activity of the cell extract was measured fluorescence quantitatively by an indirect coupled enzyme assay method. […] Total 50 μL of the reaction mixture was prepared such that the final concentration was substrate 0.1 mM suc-AAF-AMC, protein in the cell extract 1-6 μg, 100 mM MES buffer (pH 6.5). With the time of addition of the substrate as the start of the reaction, the mixture was reacted at 37° C. for 1 hr, and Phe-AMC was cut out from the substrate by neutral endopeptidase. […] The mixture was reacted at 37° C. for 30 min, and Phe (phenylalanine) residue was cut out from Phe-AMC by aminopeptidase.
On to `O=c1cc(-c2ccc(O)cc2)oc2cc(O)cc(O)c12` [Apigenin], for which the “neprilysin activity potentiating action” value is recorded as “about 1.5 times that of control”.
`O=c1cc(-c2ccccc2)oc2cc(O)cc(O)c12` [Chrysin]: the “neprilysin activity potentiating action” value is “about 1.4 times that of control”.
On the same count and under the same terms, the value for Amentoflavone was “about 2 times that of control”; that for `C/C(=C\Cc1c(O)cc2c(c1O)C[C@@H](OC(=O)c1cc(O)c(O)c(O)c1)[C@@H](c1cc(O)c(O)c(O)c1)O2)CCCC(C)CCCC(C)CCCC(C)C` (stereo partly drawn) [NUP-19] was “about 2.7 times that of control”.
The same measure, in the same setting: under `C=CCc1ccc(O)c(-c2ccc(O)c(CC=C)c2)c1` [Honokiol] stands “about 1.3 times that of control”.

In a further data set the test system is neprilysin. As to the kind of experiment: neprilysin expression amount at protein level (western blot, APP-H4 cells). Format: cell-based, human. Particulars: 48 hr, standardized to β-actin (FIG. 2). Here is the method: as §1
The aforementioned cell extract was mixed with 6×SDS-polyacrylamide gel electrophoresis (SDS-PAGE) sample buffer (Nacalai Tesque, Inc.) at a ratio of 5:1, boiled for 5 min, and used as a detection sample of neprilysin, α-secretase and β-secretase proteins.
The PVDF membrane after transfer was washed with a wash buffer and immersed in a blocking buffer to prevent non-specific binding of the primary antibody, and a blocking reaction was performed at room temperature for 1 hr. […] The PVDF membrane after the reaction was washed with the wash buffer and the secondary antibody (horseradish peroxidase conjugated anti-mouse or anti-rabbit IgG (1:10,000; GE Healthcare UK Ltd.)) corresponding to the primary antibody was reacted at room temperature for 1 hr and detection was carried out using the ECL Select Western Blotting Detection Kit (GE Healthcare UK Ltd.).
The signal intensity of the band was quantified using a densitometer LAS-4000 (GE Healthcare UK Ltd.) and image analysis software Science Laboratory 2003 Image Gauge Version 4.23 (Fujifilm Holdings Corporation, Tokyo, Japan).
(In general: A western blot detects proteins with antibodies after separation by electrophoresis.)
As for `C/C(=C\Cc1c(O)cc2c(c1O)C[C@@H](OC(=O)c1cc(O)c(O)c(O)c1)[C@@H](c1cc(O)c(O)c(O)c1)O2)CCCC(C)CCCC(C)CCCC(C)C` (stereo partly drawn) [NUP-19], the “expression amount of neprilysin at the protein level” value is “about 3.2 times that of control”.

Another data set concerns neprilysin mRNA (MME gene). As to the kind of experiment: neprilysin mRNA expression (quantitative real-time PCR, MME gene). Particulars: standardized to GAPDH mRNA (FIG. 3). Format: cell-based, human. Here is the method: (§2) In the same manner as in the above-mentioned 2, total RNA was prepared using a High Pure RNA Isolation kit (Roche 11828665001) from the cells to be the test target cells, which were treated with each polyphenol derivative and cultured, and subjected to a reverse transcription reaction using PrimeScript RT-PCR kit (TaKaRaRR014A) to give a sample (cDNA) for real-time PCR.
(§3) The prepared sample, Premix Ex taq (Perfect Real Time) (TaKaRaRR039A) and a probe, and a primer were mixed in a tube (TaKaRa SC910A), and real-time PCR reaction (initial denaturation: 95° C. 30 sec, PCR reaction: 95° C. 5 sec, 60° C. 20 sec, 40 times) was performed by Smart Cycler II System machine (TaKaRa).
(§4) The 5′-terminus of the probe was modified by a fluorescent substance FAM, and the 3′-terminus was modified by a quencher substance TAMRA, respectively.
A general note: Real-time PCR tracks product formation cycle by cycle.
As for `C/C(=C\Cc1c(O)cc2c(c1O)C[C@@H](OC(=O)c1cc(O)c(O)c(O)c1)[C@@H](c1cc(O)c(O)c(O)c1)O2)CCCC(C)CCCC(C)CCCC(C)C` (stereo partly drawn) [NUP-19], the “expression level of neprilysin at the mRNA level” value was “about 2.1 times that of control”.

Another data set addresses T1, β-secretase (Homo sapiens, UniProt P56817).
T1 construct: endogenous in cells; host or cells: APP-H4 cells (culture supernatant analysed)
The experiment in a line: β-secretase activity (APPsβ, western blot). Format: cell-based. Particulars: APP-H4 culture supernatant, APPsβ (FIG. 2). The protocol: as §1, with “extract. […]” for “extract.”
(§5) The signal intensity of the band was quantified using a densitometer LAS-4000 (GE Healthcare UK Ltd.) and image analysis software Science Laboratory 2003 Image Gauge Version 4.23 (Fujifilm Holdings Corporation, Tokyo, Japan). […]
Consider `C/C(=C\Cc1c(O)cc2c(c1O)C[C@@H](OC(=O)c1cc(O)c(O)c(O)c1)[C@@H](c1cc(O)c(O)c(O)c1)O2)CCCC(C)CCCC(C)CCCC(C)C` (stereo partly drawn) [NUP-19], for which the “β-secretase activity, remaining relative to control” value is given as “about 37 % that of control”.

Another data set deals with APP. As to the kind of experiment: extracellularly secreted APPsα/APPsβ ratio (western blot). Particulars: APP-H4 culture supernatant (FIG. 2). Format: cell-based, human. Here is the method:
as §1
After thawing from −80° C., the aforementioned culture supernatant was mixed with 6×SDS-polyacrylamide gel electrophoresis (SDS-PAGE) sample buffer (Nacalai Tesque, Inc.) at a ratio of 5:1, boiled for 5 min, and used as a detection sample of APPsα which is a metabolite of APP by α-secretase and APPsβ which is a metabolite of APP by β-secretase in western blot analysis.
The PVDF membrane after transfer was washed with a wash buffer and immersed in a blocking buffer to prevent non-specific binding of the primary antibody, and a blocking reaction was performed at room temperature for 1 hr. Thereafter, it was reacted with a primary antibody (APPsα, anti-human APPsα mouse monoclonal antibody (2B3, Immuno-Biological Laboratories Co., Ltd., Gunma, Japan) (3 μg/mL); APPsβ, anti-APPsβ, rabbit polyclonal antibody, 1 μg/mL) to perform an antigen-antibody-reaction at 4° C. for not less than 16 hr. […]
as §5
Consider `C/C(=C\Cc1c(O)cc2c(c1O)C[C@@H](OC(=O)c1cc(O)c(O)c(O)c1)[C@@H](c1cc(O)c(O)c(O)c1)O2)CCCC(C)CCCC(C)CCCC(C)C` (stereo partly drawn) [NUP-19], for which the “extracellularly secreted APPsα/APPsβ ratio” value is “about 1.4 times that of control”.

For the next data set, the system named is ADAM17. As to the kind of experiment: α-secretase mRNA expression, ADAM17 (real-time PCR). Format: cell-based, human. Particulars: control = 1. Here is the method: as §2, §3, §4
In the case of `C/C(=C\Cc1c(O)cc2c(c1O)C[C@@H](OC(=O)c1cc(O)c(O)c(O)c1)[C@@H](c1cc(O)c(O)c(O)c1)O2)CCCC(C)CCCC(C)CCCC(C)C` (stereo partly drawn) [NUP-19], the “ADAM17 expression at the mRNA level” value is given as “about 1.3 times that of control”.

The next data set relates to neprilysin, α-secretase, β-secretase. As to the kind of experiment: overall conclusion on modulation of neprilysin, α-secretase and β-secretase (Example 1). Format: cell-based, human. Particulars: conclusion from the results of Example 1. The protocol: as §1
The neprilysin-dependent neutral endopeptidase activity of the cell extract was measured fluorescence quantitatively by an indirect coupled enzyme assay method. As a neutral endopeptidase substrate, succinyl-Ala-Ala-Phe-7-amino-4-methylcoumarin (suc-AAF-AMC) (1-1315; Bachem) was used. Total 50 μL of the reaction mixture was prepared such that the final concentration was substrate 0.1 mM suc-AAF-AMC, protein in the cell extract 1-6 μg, 100 mM MES buffer (pH 6.5). With the time of addition of the substrate as the start of the reaction, the mixture was reacted at 37° C. for 1 hr, and Phe-AMC was cut out from the substrate by neutral endopeptidase. Then, to the reaction mixture was added a solution (2.5 μL) containing 0.1 mg (0.4 unit equivalent)/mL leucine aminopeptidase (L-5006; Sigma-Aldrich), and 0.2 mM phosphoramidon (4082; Peptide Institute). The mixture was reacted at 37° C. for 30 min, and Phe (phenylalanine) residue was cut out from Phe-AMC by aminopeptidase. Using microplate spectrometer Infinite M-1000 (Tecan), the fluorescence intensity of free AMC was measured by measuring at an excitation wavelength 390 nm and a fluorescence wavelength 460 nm on a half-well size 96-well black plate (#3695; Corning). The neprilysin-dependent neutral endopeptidase activity was determined based on a decrease in the activity due to 10 μM thiorphan (T-6031; Sigma-Aldrich) as a neprilysin specific inhibitor.
After thawing from −80° C., the aforementioned culture supernatant was mixed with 6×SDS-polyacrylamide gel electrophoresis (SDS-PAGE) sample buffer (Nacalai Tesque, Inc.) at a ratio of 5:1, boiled for 5 min, and used as a detection sample of APPsα which is a metabolite of APP by α-secretase and APPsβ which is a metabolite of APP by β-secretase in western blot analysis. […]
For `C/C(=C\Cc1c(O)cc2c(c1O)C[C@@H](OC(=O)c1cc(O)c(O)c(O)c1)[C@@H](c1cc(O)c(O)c(O)c1)O2)CCCC(C)CCCC(C)CCCC(C)C` (stereo partly drawn) [NUP-19], the “modulator class (neprilysin / α-secretase / β-secretase)” value is on record as “double modulator”.

Test system in the next data set: not given
Assay: not given
Conditions: coefficient of partition for octanol, in accordance with Fudouji et al. 2009; cited from earlier work.
With `C/C(=C\Cc1c(O)cc2c(c1O)C[C@@H](OC(=O)c1cc(O)c(O)c(O)c1)[C@@H](c1cc(O)c(O)c(O)c1)O2)CCCC(C)CCCC(C)CCCC(C)C` (stereo partly drawn) [NUP-19], the “log P octanol” value is above 10.
